The values that follow come from patent US7794936B1, “Using thymidine analogs to improve replication in an expanded genetic alphabet” (priority 2006, dated 2010).

For one data set, the system named is 2-aminoadenine. The following applies: cited from earlier work.
Data set [1] addresses T1, KlenTaq polymerase (Thermus aquaticus, UniProt P19821).
T1 construct: The “Klenow” fragment of Taq polymerase (Titanuim™ Taq) was purchased from BD Biosciences; purchased BD Biosciences (Mountain View, Calif.)
Briefly: Running-start primer extension reactions, incorporation opposite template isoG. It is filed as biochemical. The following applies: template T-1, primer P-1, 72° C.; for incorporation / misincorporation opposite isoG (gel band, in words): time points 0.5, 1.0, 3.0 min. As for the experimental part: (§1) The “Klenow” fragment of Taq polymerase (Titanuim™ Taq) was purchased from BD Biosciences (Mountain View, Calif.). As Titanium™ Taq is a “hot start” enzyme, the enzyme was heated to 95° C. for 2 minutes, followed by rapid cooling to ambient temperature prior to any primer extension reactions. Similarly, all polymerase chain reactions included an initial 2 minute 95° C. denaturation cycle.
In a typical primer extension reaction (25 μL total volume), 5′-^32P labeled primer (P-1, 25 pmol) and template (T-1, 30 pmol) were mixed with buffer (10 mM bis-trispropane-HCl pH 9.1, 5 mM MgCl2, 40 mM potassium acetate, 0.1 mg/ml bovine serum albumin), heated (95° C., 5 min), and cooled to room temperature over 1 hour. Polymerase (1 unit) was added, and the mixture again heated (72° C., 10 sec). Each PCR was initiated by adding the appropriate dNTPs (100 μM final concentration). Aliquots (2 μL) were removed from the mixture at time intervals, diluted into a PAGE loading/quench buffer (2 μL, 20 mM EDTA in formamide), heated (95° C., 5 min) and resolved by electrophoresis using a 20% PAGE (7 M urea). The gel was analyzed by phosphorimager. To enhance reproducibility, master mixes of the primer/template in buffer were prepared in large scale (100 μL).
Running-start primer extension reactions were performed with KlenTaq to determine the ability of the enzyme to incorporate either TTP or 2-thioTTP opposite isoG. For each reaction, the polymerase was challenged to misincorporate the respective triphosphate opposite the isoG residue at position 26 in the template (T-1), 3 nucleotides downstream of the primer (Pf-1) terminus. Reactions were run in parallel, one containing dGTP and TTP, one containing dGTP and 2-thioTTP, one containing dGTP and isoCTP (positive control), and one containing only dGTP (negative control). Aliquots of each reaction were quenched at various times and analyzed by PAGE on a 20% polyacrylamide gel.

Data set [2] deals with T1, KlenTaq polymerase. The experiment in a line: Direct nucleotide competition, single-turnover primer extension with APM gel separation. It counts as biochemical. As to the method: as §1
Single turnover primer extension reactions were performed by annealing 5′-^32P labeled primer (P-2f, 1 pmol) and template (T-2 or T-3, 1 pmol) in the appropriate buffer described above. Polymerase (1 pmol) was added, and the mixture was heated (72° C., 10 sec). The reaction was initiated by adding isoCTP (100 μM) and either 2-thioTTP (100 μM) or TTP (100 μM) in the presence of unlabeled trap DNA (P-2f, 100 pmol, T-2, 100 pmol). The reaction was quenched (20 mM EDTA in HCONH2) after 20 sec, and the samples resolved by 20% PAGE (7 M urea) containing p-acrylamidophenylmercury chloride (APM, 1 μg/mL). […] APM was synthesized as described [Igl88].
In two parallel reactions, one containing equal concentrations of 2-thioTTP and TTP, and one containing equal concentrations of 2-thioTTP and isoCTP, KlenTaq polymerase was challenged to choose a nucleotide to incorporate opposite isoG. […] The gel was analyzed via radioimaging.

Data set [3] deals with T1, KlenTaq polymerase. Briefly: PCR fidelity assay of isoC:isoG base pair replication (acid cleavage at isoC). It is filed as biochemical. The following applies: six letter PCR, template T-2, 30 cycles, fit to Y=100×(½+f/2)^x. As to the method:
as §1
For each 6-letter nucleotide system investigated, seven parallel PCR mixtures were cycled (30 rounds, 95° C. for 45 sec. then 45° C. for 45 sec. then 72° C. for 1.5 min) with the same amounts of primers P-2f (^32P labeled) and P-2r (1 pmol; 6×10^11 molecules) and varying concentrations of template T2. […] As each 10 fold dilution in template was equivalent to ca. 3.3 rounds of amplification, the fidelity of the isoC:isoG replication could be monitored on a round-by-round basis, with each amplicon requiring a different number of exponential amplifications to consume the primers (Table 2.)
Following amplification, the mixtures were treated with an equal volume of acetic acid (0.1 mM), and heated (95° C., 30 min), a procedure that depyrimidinylates the iso-cytidines that have been incorporated. […] The NH4OH was allowed to evaporate, and the mixtures diluted in 2 volumes of gel loading buffer (98% formamide, 10 mM EDTA, 1 mg/mL bromophenol blue, 1 mg/mL xylene cyanol FF) and analyzed by denaturing PAGE (17%). […]

In data set [4] the target is T1, KlenTaq polymerase. Briefly: PCR amplification using 2-thioTTP as substitute for TTP (30 rounds, template T-3). It is filed as biochemical. The following applies: 30 rounds of PCR, dATP, dCTP, dGTP plus thymidine analog, 2% agarose gel. As for the experimental part: as §1
Amplicons testing the substitution of 2-thioTTP for TTP in a PCR were generated as above, using primers P-2f and P-2r (1 pmol each), template T-3 (6×10^4 molecules), and either all four natural dNTPs (100 μM each) or by substituting 2-thioTTP for TTP.
After showing that 2-thioTTP is misincorporated less frequently than TTP opposite isoG residues, we then established that 2-thioTTP works in a PCR amplification. For this purpose, replicate polymerase chain reactions with KlenTaq polymerase were performed using the PCR replicon consisting of primers P-2f and P-2r and template T-3. Three reactions were run in parallel, one containing the four natural dNTPs (positive control), one containing dCTP, dGTP, dATP, and 2-thioTTP, and one without TTP (negative control). Each amplification was cycled for 30 rounds, and the products were analyzed by electrophoresis on a 2% agarose gel.

T1 sequence (P19821 281-832 limits assumed): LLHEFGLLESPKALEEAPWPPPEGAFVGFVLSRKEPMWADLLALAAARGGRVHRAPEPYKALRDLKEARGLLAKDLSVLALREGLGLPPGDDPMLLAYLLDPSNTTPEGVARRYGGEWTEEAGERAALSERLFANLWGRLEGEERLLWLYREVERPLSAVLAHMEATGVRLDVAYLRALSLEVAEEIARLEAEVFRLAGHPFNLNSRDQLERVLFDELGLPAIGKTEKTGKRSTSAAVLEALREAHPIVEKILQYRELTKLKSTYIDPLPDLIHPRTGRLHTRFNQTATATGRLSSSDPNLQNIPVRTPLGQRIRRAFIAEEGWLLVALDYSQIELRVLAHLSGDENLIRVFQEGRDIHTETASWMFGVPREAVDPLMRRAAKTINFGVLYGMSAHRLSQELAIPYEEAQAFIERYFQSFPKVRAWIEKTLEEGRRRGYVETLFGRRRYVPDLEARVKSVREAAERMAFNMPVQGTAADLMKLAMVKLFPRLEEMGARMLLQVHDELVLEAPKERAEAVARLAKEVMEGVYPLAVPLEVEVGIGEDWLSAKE

Consider `Cc1cn([C@H]2C[C@H](O)[C@@H](CO)O2)c(=S)[nH]c1=O` [2-thioT, 2-thiothymidine], for which the “decrease in Tm by pair with 2-aminoadenine” value in the data set with 2-aminoadenine (20 nucleotide duplex) is 2.4 °C. The “destabilization of the duplex (ΔG) by pair with 2-aminoadenine” value in the data set on 2-aminoadenine (nucleobase pair between 2-thioT and 2-aminoadenine) is 0.8 kcal/mol.

`Cc1cn([C@H]2C[C@H](O)[C@@H](COP(=O)(O)OP(=O)(O)OP(=O)(O)O)O2)c(=S)[nH]c1=O` [2-thioTTP, 2-thiothymidine triphosphate]: at KlenTaq polymerase [1], the “incorporation / misincorporation opposite isoG (gel band, in words)” value is listed as “misincorporated very little”. The “substrate preference for incorporation opposite adenosine” value on KlenTaq polymerase [2] (2-thioTTP and TTP in competition, template T-3) is recorded as “prefers 2-thioTTP over TTP”. At KlenTaq polymerase [2] (equal concentrations (100 μM) of 2-thioTTP and either TTP or isoCTP, template T-2, primer P-2f, 20 sec), the “extended product resulting from incorporation of 2-thioTTP opposite isoG” value is on record as “less than 1%”. The “fidelity-per-round of PCR for isoC:isoG base pair” value at KlenTaq polymerase [3] was 98%. The “amount of PCR product” value at KlenTaq polymerase [4] is reported as “comparable amounts of product”.

`Nc1nc(=O)ccn1[C@H]1C[C@H](O)[C@@H](COP(=O)(O)OP(=O)(O)OP(=O)(O)O)O1` [isoCTP, 2′-deoxy-iso-cytidine triphosphate]: the “incorporation opposite isoG, isoCTP relative to TTP” value on KlenTaq polymerase [1] (after one and three minutes of incubation, dNTPs 100 μM) is “approximately 2 fold”. In addition, the “incorporation / misincorporation opposite isoG (gel band, in words)” value on KlenTaq polymerase [1] is reported as “incorporated most efficiently”.
